Experiments:
A549 = test: Anti-proliferative activity against human A549 cells assessed as cell growth inhibition by MTT assay; type: functional, cell-based
HepG2 = test: Antiproliferative activity against human HepG2 cells assessed as cell growth inhibition incubated for 48 hrs by MTT assay; type: functional, cell-based; conditions: HepG2, 48 h
K562 = test: Antiproliferative activity against human K562 cells assessed as cell growth inhibition incubated for 48 hrs by MTT assay; type: functional, cell-based; conditions: K562, 48 h
DU-145 [1] = test: Antiproliferative activity against human DU-145 cells assessed as cell growth inhibition incubated for 48 hrs by MTT assay; type: functional, cell-based; conditions: DU-145, 48 h
Histone deacetylase 1 [2] = molecular target: T1, Histone deacetylase 1 (Homo sapiens, UniProt Q13547); test: Inhibition of full-length recombinant human HDAC1 expressed in baculovirus infected Hi-5 insect cells using AcLys-Tyr-Lys(e-acetyl)-AMC as substrate incubated for 24 hrs by enzymatic assay
[3] = molecular target: Protein kinase C alpha type (Mus musculus, UniProt P20444); test: Binding affinity to mouse PKC-alpha assessed as inhibition constant
[4] = molecular target: Protein-glutamine gamma-glutamyltransferase (Homo sapiens, UniProt P21980); test: Inhibition of recombinant human TG2 using N-Cbz-Glu(gamma-p-nitrophenylester) as substrate measured for 10 mins by absorbance based microplate reader analysis
Cortical neurone = test: Neuroprotective activity against glutamate-induced mouse primary cortical neurons assessed as neuronal viability incubated for 24 hrs by MTT assay; type: functional, cell-based
Histone deacetylase 1 [5] = molecular target: T1, Histone deacetylase 1; test: Inhibition of HDAC1 (unknown origin)
[6] = molecular target: T2, Protein deacetylase HDAC6 (Homo sapiens, UniProt Q9UBN7); test: Inhibition of HDAC6 (unknown origin)
T2 sequence (Q9UBN7 whole entry): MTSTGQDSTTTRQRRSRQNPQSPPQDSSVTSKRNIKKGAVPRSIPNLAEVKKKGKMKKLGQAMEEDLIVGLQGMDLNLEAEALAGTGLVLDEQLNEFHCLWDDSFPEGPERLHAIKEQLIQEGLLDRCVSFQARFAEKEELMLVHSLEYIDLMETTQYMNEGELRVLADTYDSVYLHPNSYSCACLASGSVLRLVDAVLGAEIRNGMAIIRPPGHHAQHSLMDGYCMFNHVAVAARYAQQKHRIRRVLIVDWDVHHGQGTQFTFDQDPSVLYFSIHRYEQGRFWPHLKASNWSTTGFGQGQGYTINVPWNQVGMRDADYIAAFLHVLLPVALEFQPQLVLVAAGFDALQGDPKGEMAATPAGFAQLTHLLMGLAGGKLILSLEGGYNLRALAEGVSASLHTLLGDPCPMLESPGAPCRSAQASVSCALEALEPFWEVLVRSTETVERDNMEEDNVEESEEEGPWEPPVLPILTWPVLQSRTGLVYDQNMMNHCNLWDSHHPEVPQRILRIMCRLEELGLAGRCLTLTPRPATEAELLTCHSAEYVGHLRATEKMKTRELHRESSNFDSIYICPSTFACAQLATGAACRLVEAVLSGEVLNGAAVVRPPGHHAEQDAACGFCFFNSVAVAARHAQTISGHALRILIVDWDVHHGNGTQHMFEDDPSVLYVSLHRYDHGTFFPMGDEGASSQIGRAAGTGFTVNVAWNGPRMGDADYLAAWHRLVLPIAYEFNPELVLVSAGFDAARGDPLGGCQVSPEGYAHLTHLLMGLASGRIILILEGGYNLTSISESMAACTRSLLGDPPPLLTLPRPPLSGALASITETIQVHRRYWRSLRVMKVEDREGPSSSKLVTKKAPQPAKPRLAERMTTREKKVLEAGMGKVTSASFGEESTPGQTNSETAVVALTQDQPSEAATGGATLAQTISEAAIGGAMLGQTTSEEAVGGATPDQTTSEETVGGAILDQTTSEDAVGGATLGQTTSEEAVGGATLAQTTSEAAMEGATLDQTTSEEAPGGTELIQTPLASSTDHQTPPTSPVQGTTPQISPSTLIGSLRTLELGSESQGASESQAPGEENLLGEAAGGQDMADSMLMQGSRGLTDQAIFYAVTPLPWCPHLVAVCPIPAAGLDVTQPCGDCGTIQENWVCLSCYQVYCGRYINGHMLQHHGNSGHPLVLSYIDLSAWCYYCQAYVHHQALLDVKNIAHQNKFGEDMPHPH

[7] = Inhibition of PDE5 (unknown origin); parameters: species or system Homo sapiens
Histone deacetylase 2 = Histone deacetylase 2 (Homo sapiens, UniProt Q92769); test: Inhibition of HDAC2 (unknown origin)
[8] = molecular target: High affinity cGMP-specific 3',5'-cyclic phosphodiesterase 9A (Homo sapiens, UniProt O76083); test: Inhibition of PDE9 (unknown origin)
[9] = molecular target: T2, Protein deacetylase HDAC6; test: Inhibition of His-tagged recombinant human HDAC6 expressed in baculovirus infected insect cells using Boc-Lys(Ac)-AMC as substrate preincubated for 5 mins followed by substrate addition measured after 30 mins by fluorescence based assay
Histone deacetylase 1 [10] = molecular target: T1, Histone deacetylase 1; test: Inhibition of His-tagged recombinant human HDAC1 (482 residues) expressed in baculovirus infected insect cells using FLUOR DE LYS-SIRT1 as substrate preincubated for 5 mins followed by substrate addition measured after 30 mins by fluorescence based assay
DU-145 [11] = test: Inhibition of colony formation in human DU-145 cells incubated for 10 days by crystal violet method; type: functional, cell-based; conditions: DU-145, 240 h
PC-3 = test: Inhibition of colony formation in human PC-3 cells incubated for 10 days by crystal violet method; type: functional, cell-based; conditions: PC-3, 240 h
[12] = molecular target: 72 kDa type IV collagenase (Homo sapiens, UniProt P08253); test: Inhibition of MMP2 (unknown origin) using chromogenic substrate incubated for 1 hr followed by substrate addition measured for 30 mins by microplate photometry
Histone deacetylase 8 [13] = molecular target: T3, Histone deacetylase 8 (Homo sapiens, UniProt Q9BY41); test: Inhibition of recombinant human HDAC8 using Fluor-de-lys substrate by fluorescence based microplate reader analysis
T3 sequence (Q9BY41 whole entry): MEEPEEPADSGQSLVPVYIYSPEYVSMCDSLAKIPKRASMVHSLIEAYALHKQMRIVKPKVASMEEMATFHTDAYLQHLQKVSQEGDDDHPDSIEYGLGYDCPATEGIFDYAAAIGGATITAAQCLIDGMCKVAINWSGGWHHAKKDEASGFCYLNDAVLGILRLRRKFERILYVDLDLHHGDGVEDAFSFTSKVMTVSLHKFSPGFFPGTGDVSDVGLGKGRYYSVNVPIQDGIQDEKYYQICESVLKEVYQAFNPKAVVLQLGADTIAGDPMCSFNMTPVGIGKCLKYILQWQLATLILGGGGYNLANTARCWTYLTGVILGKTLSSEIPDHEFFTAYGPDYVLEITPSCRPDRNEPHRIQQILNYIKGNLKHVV

Histone deacetylase 3 = Histone deacetylase 3 (Homo sapiens, UniProt O15379); test: Inhibition of HDAC3 (unknown origin)
Histone deacetylase 5 = Histone deacetylase 5 (Homo sapiens, UniProt Q9UQL6); test: Inhibition of HDAC5 (unknown origin)
Histone deacetylase 4 = Histone deacetylase 4 (Homo sapiens, UniProt P56524); test: Inhibition of HDAC4 (unknown origin)
[14] = test system: Panel NCI-60 (60 carcinoma cell lines); test: Cytotoxicity against human Panel NCI-60 (60 carcinoma cell lines) cells assessed as cell growth inhibition; type: functional, cell-based
Histone deacetylase = test: Inhibition of pan-HDAC (unknown origin); type: protein assay, Homo sapiens
DU-145 [15] = test: Anti-proliferative activity against human DU-145 cells assessed as cell growth inhibition measured after 72 hrs by SRB assay; type: functional, cell-based; conditions: DU-145, 72 h
Histone deacetylase 8 [16] = molecular target: T3, Histone deacetylase 8; test: Inhibition of HDAC8 (unknown origin)
DU-145 [17] = test: Cytotoxicity against human DU-145 cells assessed as cell growth inhibition; type: functional, cell-based
SMMC-7721 = test: cells; type: functional, cell-based; conditions: Homo sapiens, SMMC-7721, 48 h

Chain of Histone deacetylase 2 (Q92769 whole entry): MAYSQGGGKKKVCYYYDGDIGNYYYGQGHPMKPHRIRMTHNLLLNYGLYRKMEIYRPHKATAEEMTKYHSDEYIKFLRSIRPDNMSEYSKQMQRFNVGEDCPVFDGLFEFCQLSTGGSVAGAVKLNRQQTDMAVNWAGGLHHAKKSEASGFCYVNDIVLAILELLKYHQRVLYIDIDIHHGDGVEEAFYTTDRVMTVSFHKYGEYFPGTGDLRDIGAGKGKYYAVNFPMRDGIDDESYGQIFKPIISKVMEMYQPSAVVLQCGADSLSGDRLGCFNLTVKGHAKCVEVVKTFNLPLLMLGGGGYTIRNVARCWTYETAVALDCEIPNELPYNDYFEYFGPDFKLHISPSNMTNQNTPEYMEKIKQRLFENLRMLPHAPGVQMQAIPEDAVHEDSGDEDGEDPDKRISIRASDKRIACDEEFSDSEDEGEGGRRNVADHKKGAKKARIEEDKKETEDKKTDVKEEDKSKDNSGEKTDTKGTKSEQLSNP
T1 sequence (Q13547 whole entry): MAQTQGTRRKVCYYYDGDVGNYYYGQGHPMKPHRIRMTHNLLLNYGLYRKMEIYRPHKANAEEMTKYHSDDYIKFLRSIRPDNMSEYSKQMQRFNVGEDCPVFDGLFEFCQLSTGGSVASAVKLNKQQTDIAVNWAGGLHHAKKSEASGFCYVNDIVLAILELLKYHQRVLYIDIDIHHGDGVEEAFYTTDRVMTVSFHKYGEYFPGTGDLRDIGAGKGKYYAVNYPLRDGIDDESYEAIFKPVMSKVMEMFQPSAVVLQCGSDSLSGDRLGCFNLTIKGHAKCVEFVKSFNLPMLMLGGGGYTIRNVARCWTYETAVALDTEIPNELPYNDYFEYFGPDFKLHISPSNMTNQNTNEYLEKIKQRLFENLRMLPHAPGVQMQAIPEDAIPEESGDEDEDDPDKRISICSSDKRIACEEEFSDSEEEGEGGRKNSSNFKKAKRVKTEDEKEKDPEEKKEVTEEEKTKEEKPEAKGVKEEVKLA
Chain of High affinity cGMP-specific 3',5'-cyclic phosphodiesterase 9A (O76083 whole entry): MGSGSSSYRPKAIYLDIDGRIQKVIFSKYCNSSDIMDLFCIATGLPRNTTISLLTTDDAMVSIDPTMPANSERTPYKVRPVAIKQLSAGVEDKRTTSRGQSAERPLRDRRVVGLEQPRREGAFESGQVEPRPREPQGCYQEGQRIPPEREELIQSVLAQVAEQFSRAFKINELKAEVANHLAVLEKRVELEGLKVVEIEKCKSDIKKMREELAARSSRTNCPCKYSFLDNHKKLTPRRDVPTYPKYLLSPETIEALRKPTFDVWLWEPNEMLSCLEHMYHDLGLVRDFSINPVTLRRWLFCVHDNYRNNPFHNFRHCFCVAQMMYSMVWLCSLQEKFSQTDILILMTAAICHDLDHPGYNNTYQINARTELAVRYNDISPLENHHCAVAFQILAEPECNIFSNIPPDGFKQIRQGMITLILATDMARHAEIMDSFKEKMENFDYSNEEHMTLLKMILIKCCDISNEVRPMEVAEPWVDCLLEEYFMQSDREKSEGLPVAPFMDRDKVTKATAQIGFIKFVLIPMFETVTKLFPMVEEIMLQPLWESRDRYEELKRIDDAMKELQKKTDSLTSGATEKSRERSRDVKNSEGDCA
Chain of Histone deacetylase 3 (O15379 whole entry): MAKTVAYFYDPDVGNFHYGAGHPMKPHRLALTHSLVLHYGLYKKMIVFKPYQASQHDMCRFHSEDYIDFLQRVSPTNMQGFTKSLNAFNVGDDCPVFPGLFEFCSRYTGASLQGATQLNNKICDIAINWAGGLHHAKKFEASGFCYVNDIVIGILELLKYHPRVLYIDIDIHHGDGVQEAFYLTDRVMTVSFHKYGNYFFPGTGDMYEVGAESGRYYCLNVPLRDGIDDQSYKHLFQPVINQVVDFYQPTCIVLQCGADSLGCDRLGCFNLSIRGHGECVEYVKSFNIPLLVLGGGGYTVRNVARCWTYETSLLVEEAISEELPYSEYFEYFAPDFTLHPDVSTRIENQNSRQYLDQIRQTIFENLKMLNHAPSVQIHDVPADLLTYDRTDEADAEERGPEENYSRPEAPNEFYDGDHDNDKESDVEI
Chain of 72 kDa type IV collagenase (P08253 whole entry): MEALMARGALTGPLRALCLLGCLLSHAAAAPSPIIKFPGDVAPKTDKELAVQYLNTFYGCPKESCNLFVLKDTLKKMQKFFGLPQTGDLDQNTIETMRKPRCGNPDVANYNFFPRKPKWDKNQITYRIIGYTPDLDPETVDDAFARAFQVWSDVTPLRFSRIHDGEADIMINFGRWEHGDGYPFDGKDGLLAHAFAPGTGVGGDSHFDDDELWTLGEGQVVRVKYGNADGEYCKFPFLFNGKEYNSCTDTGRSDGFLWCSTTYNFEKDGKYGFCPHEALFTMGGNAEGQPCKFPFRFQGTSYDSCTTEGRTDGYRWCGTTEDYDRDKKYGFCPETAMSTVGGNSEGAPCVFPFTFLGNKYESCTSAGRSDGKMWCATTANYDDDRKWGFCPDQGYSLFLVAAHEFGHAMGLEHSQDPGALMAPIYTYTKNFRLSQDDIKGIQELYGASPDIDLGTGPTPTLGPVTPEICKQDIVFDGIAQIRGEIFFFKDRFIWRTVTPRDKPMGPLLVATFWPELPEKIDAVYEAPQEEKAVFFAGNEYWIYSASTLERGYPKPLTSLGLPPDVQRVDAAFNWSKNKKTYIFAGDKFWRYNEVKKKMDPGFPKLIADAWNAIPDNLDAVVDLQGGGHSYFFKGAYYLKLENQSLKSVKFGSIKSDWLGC
Chain of Histone deacetylase 5 (Q9UQL6 whole entry): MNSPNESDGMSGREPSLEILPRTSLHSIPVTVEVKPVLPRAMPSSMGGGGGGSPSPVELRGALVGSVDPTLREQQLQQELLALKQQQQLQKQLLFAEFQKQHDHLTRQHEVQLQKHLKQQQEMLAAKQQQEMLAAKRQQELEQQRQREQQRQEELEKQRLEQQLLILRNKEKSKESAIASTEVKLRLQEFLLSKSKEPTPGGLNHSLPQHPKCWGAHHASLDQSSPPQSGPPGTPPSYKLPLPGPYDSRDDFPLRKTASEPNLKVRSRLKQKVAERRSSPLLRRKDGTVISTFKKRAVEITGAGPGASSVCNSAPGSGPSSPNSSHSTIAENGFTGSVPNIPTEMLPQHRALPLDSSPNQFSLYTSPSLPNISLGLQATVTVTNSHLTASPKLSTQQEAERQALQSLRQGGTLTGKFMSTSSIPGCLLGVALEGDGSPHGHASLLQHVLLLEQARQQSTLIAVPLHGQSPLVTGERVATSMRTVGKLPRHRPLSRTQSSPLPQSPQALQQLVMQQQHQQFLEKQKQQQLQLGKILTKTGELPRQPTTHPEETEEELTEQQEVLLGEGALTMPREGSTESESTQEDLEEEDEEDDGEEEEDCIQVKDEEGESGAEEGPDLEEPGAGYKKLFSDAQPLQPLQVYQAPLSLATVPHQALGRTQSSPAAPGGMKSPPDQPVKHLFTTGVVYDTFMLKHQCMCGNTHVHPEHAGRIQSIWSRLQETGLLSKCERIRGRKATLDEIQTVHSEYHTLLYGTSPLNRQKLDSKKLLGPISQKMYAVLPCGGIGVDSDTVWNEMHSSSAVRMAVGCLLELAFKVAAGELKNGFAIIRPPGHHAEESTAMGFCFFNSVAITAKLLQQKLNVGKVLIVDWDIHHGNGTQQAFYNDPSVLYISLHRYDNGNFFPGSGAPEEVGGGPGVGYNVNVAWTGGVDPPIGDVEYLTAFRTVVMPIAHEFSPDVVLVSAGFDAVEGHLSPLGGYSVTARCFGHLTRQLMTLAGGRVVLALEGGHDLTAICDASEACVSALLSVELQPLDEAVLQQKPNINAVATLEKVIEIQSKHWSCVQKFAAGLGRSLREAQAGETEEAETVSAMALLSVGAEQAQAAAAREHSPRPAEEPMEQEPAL

**Q.** For `O=C(CCCCCOc1ccc(-c2nc3ccccc3c3cc(-c4ccccc4)nn23)cc1)NO`, which IC50 (A549) is on record?
**A.** The IC50 was 720 nM.

**Q.** With `CCN1CCN(c2cc(Nc3ncc(C(=O)Nc4ccc(F)cc4N)s3)ncn2)CC1` as the compound, how does the IC50 (HepG2) read?
**A.** Its IC50 is 10400 nM.

**Q.** And the IC50 (K562)?
**A.** Its IC50 is 2260 nM.

**Q.** And the IC50 (DU-145 [1])?
**A.** Its IC50 is 600 nM.

**Q.** And the IC50 (Histone deacetylase 1 [2])?
**A.** The IC50 was 810 nM.

**Q.** With `CC(=O)SCCCCCCOc1ccc2c(c1)N(C)[C@@H](C(C)C)C(=O)N[C@H](CO)C2` as the compound, how does the Ki [3] read?
**A.** Its Ki is 8.7 nM.

**Q.** With `O=C(CCCCNC(=S)Nc1ccc(/C=C/C(=O)c2cccnc2)cc1)NO` as the compound, how does the IC50 [4] read?
**A.** The IC50 was 13300 nM.

**Q.** What about the EC50 (Cortical neurone) of the same compound?
**A.** Its EC50 is 3700 nM.

**Q.** What about the IC50 (Histone deacetylase 1 [5]) of the same compound?
**A.** Its IC50 is 3380 nM.

**Q.** What about the IC50 [6] of the same compound?
**A.** The IC50 was 4100 nM.

**Q.** With `C[C@H]1CN(Cc2ccc(C(=O)NO)cc2)C[C@@H]1c1nc2c(cnn2C2CCCC2)c(=O)[nH]1` as the compound, how does the IC50 [7] read?
**A.** The IC50 was > 10000 nM.

**Q.** And the IC50 (Histone deacetylase 2)?
**A.** The IC50 was 3530 nM.

**Q.** And the IC50 (Histone deacetylase 1 [5])?
**A.** The IC50 was 593 nM.

**Q.** What about the IC50 [8] of the same compound?
**A.** Its IC50 is 107 nM.

**Q.** And the IC50 [6]?
**A.** Its IC50 is 40 nM.

**Q.** With `C[C@@H](c1nc2c(cnn2C2CCCC2)c(=O)[nH]1)N1CC(Cc2ccc(C(=O)Nc3ccccc3N)cc2)C1` as the compound, how does the IC50 [7] read?
**A.** Its IC50 is > 10000 nM.

**Q.** And the IC50 (Histone deacetylase 2)?
**A.** Its IC50 is 545 nM.

**Q.** What about the IC50 (Histone deacetylase 1 [5]) of the same compound?
**A.** The IC50 was 99 nM.

**Q.** What about the IC50 [8] of the same compound?
**A.** The IC50 was 57 nM.

**Q.** What about the IC50 [6] of the same compound?
**A.** The IC50 was > 10000 nM.

**Q.** For `O=C(CCCCCNC(=O)c1cccc2cc3ccccc3nc12)NO`, which IC50 [9] is on record?
**A.** The IC50 was 2.2 nM.

**Q.** And the IC50 (Histone deacetylase 1 [10])?
**A.** The IC50 was 16.6 nM.

**Q.** What about the IC50 (DU-145 [11]) of the same compound?
**A.** Its IC50 is 160 nM.

**Q.** What about the IC50 (PC-3) of the same compound?
**A.** The IC50 was 310 nM.

**Q.** For `COc1ccc(CC(=O)N[C@@H](CCC(=O)O)C(=O)NCc2ccccc2)cc1`, which IC50 [12] is on record?
**A.** Its IC50 is 83700 nM.

**Q.** And the IC50 (Histone deacetylase 8 [13])?
**A.** Its IC50 is 3800 nM.

**Q.** For `Cn1c(CCCC(=O)O)nc2cc(N(CCCl)CCCl)ccc21` [BENDAMUSTINE], which IC50 (Histone deacetylase 3) is on record?
**A.** The IC50 was 10 nM.

**Q.** What about the IC50 (Histone deacetylase 5) of the same compound?
**A.** The IC50 was 10 nM.

**Q.** What about the IC50 (Histone deacetylase 2) of the same compound?
**A.** The IC50 was 10 nM.

**Q.** What about the IC50 (Histone deacetylase 4) of the same compound?
**A.** Its IC50 is 10 nM.

**Q.** What about the IC50 (Histone deacetylase 1 [5]) of the same compound?
**A.** Its IC50 is 10 nM.

**Q.** And the IC50 [6]?
**A.** Its IC50 is 10 nM.

**Q.** What about the IC50 [14] of the same compound?
**A.** Its IC50 is 2200 nM.

**Q.** With `CC[C@@]1(O)C(=O)OCc2c1cc1n(c2=O)Cc2cc3ccccc3nc2-1` [CAMPTOTHECIN] as the compound, how does the IC50 (Histone deacetylase) read?
**A.** Its IC50 is 50 nM.

**Q.** What about the IC50 (DU-145 [15]) of the same compound?
**A.** Its IC50 is 70 nM.

**Q.** For `COc1cccc2c1C(=O)c1c(O)c3c(c(O)c1C2=O)C[C@@](O)(C(C)=O)C[C@@H]3O[C@H]1C[C@H](N)[C@H](O)[C@H](C)O1` [DAUNORUBICIN], which IC50 (Histone deacetylase 8 [16]) is on record?
**A.** The IC50 was 220 nM.

**Q.** And the IC50 (DU-145 [17])?
**A.** Its IC50 is 130 nM.

**Q.** What about the IC50 (Histone deacetylase 1 [5]) of the same compound?
**A.** The IC50 was 47 nM.

**Q.** And the IC50 [6]?
**A.** Its IC50 is 20 nM.

**Q.** With `CC(C)=CCC/C(C)=C/CC/C(C)=C/CSc1ccccc1C(=O)O` [SALIRASIB] as the compound, how does the IC50 (SMMC-7721) read?
**A.** Its IC50 is 6700 nM.

From ChEMBL document CHEMBL5113372, “Paradigm shift of "classical" HDAC inhibitors to "hybrid" HDAC inhibitors in therapeutic interventions” (Eur J Med Chem, 2021)
